In patent US10570129B2 (Zoetis Services LLC, priority 2015, dated 2020):

Columns and labels:
[1] = test system: Haemonchus contortus L3; assay: microbe, parasite or virus in culture; assay type: cell-based; details: Haemonchus contortus, 96 h, read-out: HcL3 Minimal Effective Concentration (MEC)
[2] = test system: D. immitis microfilariae; assay: Dirofilaria immitis, microfilariae (DiMF) in vitro motility assay; assay type: cell-based; details: Dirofilaria immitis, 72 h, read-out: DiMF minimally effective dose (MEC)

NC(=O)c1ccc2c3c(n(C(=O)NCc4ccnc(Cl)c4)c2c1)CCN(C/C=C/c1ccc(Cl)cc1)C3 [Example 464, (E)-2-(3-(4-chlorophenyl)allyl)-N^5-((2-chloropyridin-4-yl)methyl)-1,2,3,4-tetrahydro-5H-pyrido[4,3-b]indole-5,7-dicarboxamide]
minimal effective concentration [1]: 3.3 µM | minimal effective concentration [2]: 7.6 µM

NC(=O)c1ccc2c3c(n(C(=O)NCc4ccnc(Cl)c4)c2c1)CCN(C/C=C/c1ccc(Cl)c(F)c1)C3 [Example 465, (E)-2-(3-(4-chloro-3-fluorophenyl)allyl)-N^5-((2-chloropyridin-4-yl)methyl)-1,2,3,4-tetrahydro-5H-pyrido[4,3-b]indole-5,7-dicarboxamide]
minimal effective concentration [1]: 3.3 µM | minimal effective concentration [2]: 10 µM

NC(=O)c1ccc2c3c(n(C(=O)NCc4ccnc(Cl)c4)c2c1)CCN(C/C=C/c1ccc(F)cc1)C3 [Example 466, (E)-N^5-((2-chloropyridin-4-yl)methyl)-2-(3-(4-fluorophenyl)allyl)-1,2,3,4-tetrahydro-5H-pyrido[4,3-b]indole-5,7-dicarboxamide]
minimal effective concentration [1]: > 100 µM | minimal effective concentration [2]: 3.3 µM

NC(=O)c1ccc2c(c1)c1c(n2C(=O)NCc2ccnc(Cl)c2)CCN(C/C=C/c2ccc(Cl)c(F)c2)C1 [Example 467, (E)-2-(3-(4-chloro-3-fluorophenyl)allyl)-N^5-((2-chloropyridin-4-yl)methyl)-1,2,3,4-tetrahydro-5H-pyrido[4,3-b]indole-5,8-dicarboxamide]
minimal effective concentration [1]: > 100 µM | minimal effective concentration [2]: 1 µM

CCOc1cc2c(cc1Br)c1c(n2C(=O)NCc2ccnc(Cl)c2)CCN(C/C=C/c2ccc(Cl)cc2)C1 [Example 468, (E)-8-bromo-2-(3-(4-chlorophenyl)allyl)-N-((2-chloropyridin-4-yl)methyl)-7-ethoxy-1,2,3,4-tetrahydro-5H-pyrido[4,3-b]indole-5-carboxamide]
minimal effective concentration [1]: 0.2 µM | minimal effective concentration [2]: 1.8 µM

O=C(NCc1ccnc(Cl)c1)n1c2c(c3cc(F)c(OC(F)(F)F)cc31)CN(C/C=C/c1ccc(Cl)cc1)CC2 [Example 469, (E)-2-(3-(4-chlorophenyl)allyl)-N-((2-chloropyridin-4-yl)methyl)-8-fluoro-7-(trifluoromethoxy)-1,2,3,4-tetrahydro-5H-pyrido[4,3-b]indole-5-carboxamide]
minimal effective concentration [1]: 1 µM | minimal effective concentration [2]: > 100 µM

O=C(NCc1ccnc(Cl)c1)n1c2c(c3cc(F)c(OC(F)(F)F)cc31)CN(C/C=C/c1ccc(F)cc1)CC2 [Example 471, (E)-N-((2-chloropyridin-4-yl)methyl)-8-fluoro-2-(3-(4-fluorophenyl)allyl)-7-(trifluoromethoxy)-1,2,3,4-tetrahydro-5H-pyrido[4,3-b]indole-5-carboxamide]
minimal effective concentration [1]: 0.3 µM | minimal effective concentration [2]: 10 µM

O=C(NCc1ccnc(F)c1)n1c2c(c3cc(F)c(OC(F)(F)F)cc31)CN(C/C=C/c1ccc(Cl)cc1)CC2 [Example 472, (E)-2-(3-(4-chlorophenyl)allyl)-8-fluoro-N-((2-fluoropyridin-4-yl)methyl)-7-(trifluoromethoxy)-1,2,3,4-tetrahydro-5H-pyrido[4,3-b]indole-5-carboxamide]
minimal effective concentration [1]: 1 µM | minimal effective concentration [2]: 10 µM

O=C(NCc1ccnc(Cl)c1)n1c2c(c3cc4c(cc31)COC4)CN(C/C=C/c1ccc(C(F)(F)F)cn1)CC2 [Example 474, (E)-N-((2-chloropyridin-4-yl)methyl)-8-(3-(5-(trifluoromethyl)pyridin-2-yl)allyl)-1,3,6,7,8,9-hexahydro-5H-furo[3,4-f]pyrido[4,3-b]indole-5-carboxamide]
minimal effective concentration [1]: 0.2 µM | minimal effective concentration [2]: 10 µM

N#Cc1ccc(/C=C/CN2CCc3c(c4cc5c(cc4n3C(=O)NCc3ccnc(Cl)c3)COC5)C2)cc1 [Example 479, (E)-N-((2-chloropyridin-4-yl)methyl)-8-(3-(4-cyanophenyl)allyl)-1,3,6,7,8,9-hexahydro-5H-furo[3,4-f]pyrido[4,3-b]indole-5-carboxamide]
minimal effective concentration [1]: 1 µM | minimal effective concentration [2]: > 100 µM

O=C(NCc1ccnc(Cl)c1)n1c2c(c3cc4c(cc31)COC4)CN(C/C=C/c1ccc(Cl)cc1)CC2 [Example 480, (E)-8-(3-(4-chlorophenyl)allyl)-N-((2-chloropyridin-4-yl)methyl)-1,3,6,7,8,9-hexahydro-5H-furo[3,4-f]pyrido[4,3-b]indole-5-carboxamide]
minimal effective concentration [1]: 0.3 µM | minimal effective concentration [2]: 3.3 µM

O=C(NCc1ccnc(Cl)c1)n1c2c(c3cc4c(cc31)COC4)CN(C/C=C/c1ccc(C(F)(F)F)cc1)CC2 [Example 482, (E)-N-((2-chloropyridin-4-yl)methyl)-8-(3-(4-(trifluoromethyl)phenyl)allyl)-1,3,6,7,8,9-hexahydro-5H-furo[3,4-f]pyrido[4,3-b]indole-5-carboxamide]
minimal effective concentration [1]: 1.8 µM | minimal effective concentration [2]: 3.3 µM

O=C(NCc1ccnc(Cl)c1)n1c2c(c3c4c(ccc31)COC4)CN(C/C=C/c1ccc(Cl)cc1)CC2 [Example 490, (E)-9-(3-(4-chlorophenyl)allyl)-N-((2-chloropyridin-4-yl)methyl)-1,3,7,8,9,10-hexahydro-6H-furo[3,4-e]pyrido[4,3-b]indole-6-carboxamide]
minimal effective concentration [1]: 0.2 µM | minimal effective concentration [2]: 10 µM

CSc1cc2c3c(n(C(=O)NCc4ccnc(Cl)c4)c2cc1C#N)CCN(C/C=C/c1ccc(Cl)cc1)C3 [Example 491, (E)-2-(3-(4-chlorophenyl)allyl)-N-((2-chloropyridin-4-yl)methyl)-7-cyano-8-(methylthio)-1,2,3,4-tetrahydro-5H-pyrido[4,3-b]indole-5-carboxamide]
minimal effective concentration [1]: 1 µM | minimal effective concentration [2]: 18.2 µM

O=C(NCc1ccnc(Cl)c1)n1c2c(c3cc(Br)c(OC(F)(F)F)cc31)CN(C/C=C/c1ccc(Cl)cc1)CC2 [Example 492, (E)-8-bromo-2-(3-(4-chlorophenyl)allyl)-N-((2-chloropyridin-4-yl)methyl)-7-(trifluoromethoxy)-1,2,3,4-tetrahydro-5H-pyrido[4,3-b]indole-5-carboxamide]
minimal effective concentration [1]: 1.8 µM | minimal effective concentration [2]: 0.5 µM

COc1cc2c3c(n(C(=O)NCc4ccnc(Cl)c4)c2cc1C#N)CCN(C/C=C/c1ccc(Cl)cc1)C3 [Example 493, (E)-2-(3-(4-chlorophenyl)allyl)-N-((2-chloropyridin-4-yl)methyl)-7-cyano-8-methoxy-1,2,3,4-tetrahydro-5H-pyrido[4,3-b]indole-5-carboxamide]
minimal effective concentration [1]: 1 µM | minimal effective concentration [2]: 5.7 µM

Cc1cc2c(cc1OC(F)(F)F)c1c(n2C(=O)NCc2ccnc(Cl)c2)CCN(C/C=C/c2ccc(Cl)cc2)C1 [Example 494, (E)-2-(3-(4-chlorophenyl)allyl)-N-((2-chloropyridin-4-yl)methyl)-7-methyl-8-(trifluoromethoxy)-1,2,3,4-tetrahydro-5H-pyrido[4,3-b]indole-5-carboxamide]
minimal effective concentration [1]: 1 µM | minimal effective concentration [2]: > 100 µM
